Reference: ChEMBL document CHEMBL5143607, “Discovery and structure-activity relationships of a novel oxazolidinone class of bacterial type II topoisomerase inhibitors” (Bioorg Med Chem Lett, 2022)
In brackets after ≈: the same amount, converted by molar mass.

What was measured:
Klebsiella pneumoniae = test: Antibacterial activity against Klebsiella pneumoniae ATCC 700603 assessed as bacterial growth inhibition by CLSI protocol based assay; assay type: functional
Escherichia coli [1] = test: Resistance development in Escherichia coli ATCC25922 assessed as spontaneous resistance frequency at 4 times MIC by resistance development assay; assay type: functional
[2] = Plasma protein binding in mouse assessed as free fraction by equilibrium dialysis assay; assay type: ADME, cell-free
[3] = Intrinsic clearance in human liver microsomes in presence of NADPH and measured upto 45 mins; assay type: ADME, Microsome; settings: read-out: CLH
[4] = biological target: DNA topoisomerase 2-alpha (Homo sapiens, UniProt P11388); test: Inhibition of human topoisomerase 2 assessed as reduction in decatenation
Chain of DNA topoisomerase 2-alpha (P11388 whole entry): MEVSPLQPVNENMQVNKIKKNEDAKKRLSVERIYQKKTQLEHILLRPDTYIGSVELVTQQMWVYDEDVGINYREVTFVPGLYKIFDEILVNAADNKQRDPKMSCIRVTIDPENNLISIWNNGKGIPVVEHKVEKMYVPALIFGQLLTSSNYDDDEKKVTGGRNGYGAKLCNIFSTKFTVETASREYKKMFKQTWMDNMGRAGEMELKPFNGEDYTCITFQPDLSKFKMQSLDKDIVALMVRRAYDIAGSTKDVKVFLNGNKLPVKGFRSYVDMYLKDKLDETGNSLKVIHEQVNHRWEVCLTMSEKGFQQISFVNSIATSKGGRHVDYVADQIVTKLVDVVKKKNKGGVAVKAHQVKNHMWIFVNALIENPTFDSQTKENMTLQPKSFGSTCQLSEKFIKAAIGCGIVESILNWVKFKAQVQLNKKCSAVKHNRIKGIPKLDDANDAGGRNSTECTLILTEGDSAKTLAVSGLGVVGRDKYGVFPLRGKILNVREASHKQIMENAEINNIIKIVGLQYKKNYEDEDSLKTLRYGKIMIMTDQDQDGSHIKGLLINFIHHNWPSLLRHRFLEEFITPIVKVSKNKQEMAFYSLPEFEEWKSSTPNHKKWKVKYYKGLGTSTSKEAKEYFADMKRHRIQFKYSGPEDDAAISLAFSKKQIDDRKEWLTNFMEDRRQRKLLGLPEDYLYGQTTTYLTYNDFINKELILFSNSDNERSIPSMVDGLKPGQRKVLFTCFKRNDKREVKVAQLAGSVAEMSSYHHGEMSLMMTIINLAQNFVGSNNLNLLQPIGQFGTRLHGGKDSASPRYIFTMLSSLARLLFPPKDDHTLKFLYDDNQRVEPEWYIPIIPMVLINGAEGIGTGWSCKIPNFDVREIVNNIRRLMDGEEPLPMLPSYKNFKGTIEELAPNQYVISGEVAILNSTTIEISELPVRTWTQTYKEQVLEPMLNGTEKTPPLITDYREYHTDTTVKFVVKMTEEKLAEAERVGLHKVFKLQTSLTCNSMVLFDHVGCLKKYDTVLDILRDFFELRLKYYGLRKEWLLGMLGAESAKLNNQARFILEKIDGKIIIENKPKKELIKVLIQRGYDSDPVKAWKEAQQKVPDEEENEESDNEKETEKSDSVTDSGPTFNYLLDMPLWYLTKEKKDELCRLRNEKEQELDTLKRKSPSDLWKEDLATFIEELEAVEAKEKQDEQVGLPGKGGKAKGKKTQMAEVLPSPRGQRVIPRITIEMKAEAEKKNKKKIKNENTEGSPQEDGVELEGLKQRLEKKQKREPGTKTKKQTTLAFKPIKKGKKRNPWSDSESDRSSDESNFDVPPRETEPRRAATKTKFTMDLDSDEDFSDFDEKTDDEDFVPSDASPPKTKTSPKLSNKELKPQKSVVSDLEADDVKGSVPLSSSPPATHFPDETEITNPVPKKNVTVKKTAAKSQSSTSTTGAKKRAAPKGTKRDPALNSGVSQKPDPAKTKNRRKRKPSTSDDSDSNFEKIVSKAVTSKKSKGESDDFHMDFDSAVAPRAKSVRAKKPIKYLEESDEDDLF

Escherichia coli [5] = test: Antibacterial activity against Escherichia coli W4573 assessed as bacterial growth inhibition by CLSI protocol based assay; assay type: functional
[6] = Kinetic solubility of compound; assay type: physicochemical; settings: read-out: Kinetic_solubility
[7] = Intrinsic clearance in mouse liver microsomes in presence of NADPH and measured upto 45 mins; assay type: ADME, Microsome; settings: read-out: CLH
Escherichia coli [8] = test: Antibacterial activity against Escherichia coli N43 assessed as bacterial growth inhibition by CLSI protocol based assay; assay type: functional
Staphylococcus aureus = test: Antibacterial activity against Staphylococcus aureus ATCC 29213 assessed as bacterial growth inhibition by CLSI protocol based assay; assay type: functional
Acinetobacter baumannii = test: Antibacterial activity against Acinetobacter baumannii NCTC 13420 assessed as bacterial growth inhibition by CLSI protocol based assay; assay type: functional
[9] = Inhibition of Escherichia coli topoisomerase 4 assessed as reduction in decatenation
[10] = Cytotoxicity against human HepG2 cells assessed as reduction in cell viability for 24 hrs by Celltiter-Glo assay; assay type: toxicity, cell-based
Pseudomonas aeruginosa = test: Antibacterial activity against Pseudomonas aeruginosa ATCC 27853 assessed as bacterial growth inhibition by CLSI protocol based assay; assay type: functional
[11] = biological target: Voltage-gated inwardly rectifying potassium channel KCNH2 (Homo sapiens, UniProt Q12809); test: Inhibition of human ERG by Ionworks electrophysiology assay; assay type: toxicity
Chain of Voltage-gated inwardly rectifying potassium channel KCNH2 (Q12809 whole entry): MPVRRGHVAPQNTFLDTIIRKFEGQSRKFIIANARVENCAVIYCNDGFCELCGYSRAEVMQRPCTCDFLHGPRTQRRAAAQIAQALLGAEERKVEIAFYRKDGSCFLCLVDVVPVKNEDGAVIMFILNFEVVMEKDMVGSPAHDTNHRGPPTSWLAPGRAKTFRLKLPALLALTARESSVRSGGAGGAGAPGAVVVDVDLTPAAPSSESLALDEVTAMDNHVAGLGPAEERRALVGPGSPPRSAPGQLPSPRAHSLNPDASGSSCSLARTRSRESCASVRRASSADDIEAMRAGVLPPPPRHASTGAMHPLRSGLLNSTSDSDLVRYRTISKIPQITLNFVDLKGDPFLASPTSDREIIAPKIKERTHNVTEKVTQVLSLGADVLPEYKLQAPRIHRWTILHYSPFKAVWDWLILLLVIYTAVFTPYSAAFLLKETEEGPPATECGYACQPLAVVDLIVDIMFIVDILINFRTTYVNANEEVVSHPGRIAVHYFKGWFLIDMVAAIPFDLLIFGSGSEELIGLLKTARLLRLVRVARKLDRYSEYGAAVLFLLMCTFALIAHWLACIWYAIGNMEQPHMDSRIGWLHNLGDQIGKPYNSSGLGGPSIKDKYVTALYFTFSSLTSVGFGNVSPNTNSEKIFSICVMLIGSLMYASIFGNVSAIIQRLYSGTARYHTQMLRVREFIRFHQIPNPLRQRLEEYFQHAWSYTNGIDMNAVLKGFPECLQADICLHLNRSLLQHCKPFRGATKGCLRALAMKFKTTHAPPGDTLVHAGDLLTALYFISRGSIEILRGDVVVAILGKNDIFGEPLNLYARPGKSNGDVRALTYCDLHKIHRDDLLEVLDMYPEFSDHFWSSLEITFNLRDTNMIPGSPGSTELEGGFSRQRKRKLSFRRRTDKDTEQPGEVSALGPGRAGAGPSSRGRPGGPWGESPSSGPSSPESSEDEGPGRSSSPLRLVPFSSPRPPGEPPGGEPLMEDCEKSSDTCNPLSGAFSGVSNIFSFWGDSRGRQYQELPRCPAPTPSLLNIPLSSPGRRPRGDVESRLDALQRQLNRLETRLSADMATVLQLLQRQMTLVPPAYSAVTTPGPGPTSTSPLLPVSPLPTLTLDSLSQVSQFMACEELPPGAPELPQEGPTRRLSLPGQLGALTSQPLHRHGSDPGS

[12] = Lipophilicity, logD of the compound by shake flask assay; assay type: physicochemical; settings: octanol/water
DNA gyrase = DNA gyrase (Escherichia coli, UniProt P0AES4+P0AES6); test: Inhibition of Escherichia coli DNA gyrase supercoiling activity; assay type: protein-complex assay
hERG (KCNH2) = hERG (KCNH2) (Homo sapiens, UniProt Q12809); test: Inhibition of human ERG at 100 uM by Ionworks electrophysiology assay; assay type: toxicity
Chain of hERG (KCNH2) (Q12809 whole entry): as above

[13] = Protein binding in mouse plasma by equilibrium dialysis assay; assay type: ADME, cell-free; settings: read-out: PPB (converted)
[14] = Protein binding in human plasma by equilibrium dialysis assay; assay type: ADME, cell-free; settings: read-out: PPB (converted)

| SMILES | MIC (Klebsiella pneumoniae) [µg/mL] | Activity (Escherichia coli [1]) | fraction unbound [2] | microsomal CLint [3] [µL/min/mg] | IC50 [4] [µM] | MIC (Escherichia coli [5]) [µg/mL] | solubility kinetic [6] [µM] | microsomal CLint [7] [µL/min/mg] | MIC (Escherichia coli [8]) [µg/mL] | MIC (Staphylococcus aureus) [µg/mL] | MIC (Acinetobacter baumannii) [µg/mL] | IC50 [9] [µM] | IC50 at 24 h [10] [µg/mL] | MIC (Pseudomonas aeruginosa) [µg/mL] | IC50 [11] [µM] | logD [12] | IC50 (DNA gyrase) [µM] | inhibition at 100 µM (hERG (KCNH2)) [%] | fraction unbound [13] | fraction unbound [14] |
| --- | --- | --- | --- | --- | --- | --- | --- | --- | --- | --- | --- | --- | --- | --- | --- | --- | --- | --- | --- | --- |
| N#Cc1cnc2ccc(=O)n(CCCN[C@H]3CC[C@H]4[C@H](C3)OC(=O)N4c3ccc4c(n3)NC(=O)CO4)c2c1 | 8 (≈ 15.5 µM) | 7.8 10^-8No_unit | > 0.3 | < 3 | > 100 | 0.25 (≈ 0.485 µM) | 86 (≈ 44.3 µg/mL) | < 3 | 0.015 (≈ 0.0291 µM) | 0.5 (≈ 0.97 µM) | 2 (≈ 3.88 µM) | 4.24 | > 32 | 2 (≈ 3.88 µM) | > 100 | 0.5 | 0.34 |  |  |  |
| O=C1COc2ccc(N3C(=O)O[C@H]4C[C@@H](NCCn5c(=O)cnc6ccc(F)cc65)CC[C@@H]43)nc2N1 | 8 (≈ 16.2 µM) |  |  |  |  | 0.25 (≈ 0.506 µM) |  |  | ≤ 0.002 | 0.015 (≈ 0.0303 µM) | 0.03 (≈ 0.0607 µM) |  | > 64 | 4 (≈ 8.09 µM) |  | 1.58 |  | 33 |  |  |
| COc1cnc2ccc(=O)n(CCN[C@H]3CC[C@H]4[C@H](C3)OC(=O)N4c3ccc4c(n3)NC(=O)CO4)c2c1 | 8 (≈ 15.8 µM) |  | 0.25 | 35 | > 100 | 0.25 (≈ 0.494 µM) | 94 (≈ 47.6 µg/mL) | 62 | ≤ 0.008 | 0.03 (≈ 0.0592 µM) | 1 (≈ 1.97 µM) | 0.1 | > 128 | 2 (≈ 3.95 µM) | 32 | 1.36 | 0.22 |  |  |  |
| COc1ccc2ccc(=O)n(CCN[C@@H]3CC[C@@H]4[C@H](C3)OC(=O)N4c3ccc4c(n3)NC(=O)CO4)c2n1 | 8 (≈ 15.8 µM) |  |  |  |  | 0.25 (≈ 0.494 µM) |  |  | 0.004 (≈ 0.0079 µM) | 0.008 (≈ 0.0158 µM) | 1 (≈ 1.97 µM) |  | > 32 | 4 (≈ 7.9 µM) | 5 | 2 |  |  | 0.873 | 0.965 |
| COc1ccc2ccc(=O)n(CCN[C@H]3CC[C@H]4[C@H](C3)OC(=O)N4c3ccc4c(n3)NC(=O)CO4)c2c1 | 8 (≈ 15.8 µM) |  |  |  |  | 0.25 (≈ 0.495 µM) |  |  | 0.03 (≈ 0.0593 µM) | 0.008 (≈ 0.0158 µM) | 0.06 (≈ 0.119 µM) |  | > 64 | 4 (≈ 7.91 µM) |  | 2.25 |  | 85 |  |  |
| COc1ccc2ccc(=O)n(CCN[C@@H]3CC[C@@H]4[C@@H](C3)OC(=O)N4c3ccc4c(n3)NC(=O)CO4)c2n1 | 1 (≈ 1.97 µM) |  |  |  |  | 0.03 (≈ 0.0592 µM) |  |  | < 0.004 | 0.03 (≈ 0.0592 µM) | 0.06 (≈ 0.118 µM) |  | 64 (≈ 126 µM) | 0.25 (≈ 0.494 µM) | 10 | 1.8 |  |  |  | 0.947 |
| COc1cnc2ccc(=O)n(CCCN[C@H]3CC[C@H]4[C@H](C3)OC(=O)N4c3ccc4c(n3)NC(=O)CO4)c2c1 | 8 (≈ 15.4 µM) | 3.2 10^-7No_unit | > 0.3 | < 3 | > 100 | 0.25 (≈ 0.48 µM) | > 100 | 9 | 0.008 (≈ 0.0154 µM) | 0.06 (≈ 0.115 µM) | 0.5 (≈ 0.961 µM) | 0.015 | > 64 | 2 (≈ 3.84 µM) | > 100 | 0.94 | 0.46 |  |  |  |
| COc1ccc2ccc(=O)n(CCCN[C@H]3CC[C@H]4[C@H](C3)OC(=O)N4c3ccc4c(n3)NC(=O)CO4)c2n1 | 8 (≈ 15.4 µM) |  |  |  |  | 0.25 (≈ 0.48 µM) |  |  | ≤ 0.002 | 0.015 (≈ 0.0288 µM) | 0.06 (≈ 0.115 µM) |  | 40 (≈ 76.8 µM) | 4 (≈ 7.68 µM) |  | 1.61 |  | 97 |  |  |
| N#Cc1ccc2c(ccc(=O)n2CCN[C@H]2CC[C@H]3[C@H](C2)OC(=O)N3c2ccc3c(n2)NC(=O)CO3)c1 | > 64 |  |  |  |  | 4 (≈ 7.99 µM) |  |  | 0.06 (≈ 0.12 µM) | 4 (≈ 7.99 µM) | 8 (≈ 16 µM) |  |  | > 64 |  | 1.69 |  | 56 |  |  |
